“And” between values parts separate entries of the source, which are not always exact repeats. Identical values can stand only once. Marks after values point to notes of the source that are not given here.
Tests used:
[1] = system: scopolamine and MK801-induced cognitive impairment; experiment: Example 5: Y-maze test, scopolamine and MK801-induced deficits, co-administration with donepezil (Table 102); format: in vivo, ddY mouse; details: Donepezil 10 mg/kg, p.o. alone
Description: Thus, scopolamine-induced cognitive impairment model, one of the AD-like model, has been used to predict pharmacodynamic signals of putative procognitive compounds, utilizing the acetylcholinesterase inhibitor donepezil for illustration (See, Citations 1 and 2). The present inventors investigated the effect of each compound on reversal of scopolamine-induced deficits in performance of Y-maze test in mice, and they also investigated adjunctive effect of compounds with donepezil on reversal of deficits induced by scopolamine and MK801 in mice.
Used animal: ddY mouse (SLC)
In the experiments, the mice were grouped in the same way using Stat Preclinica (Version 1.03295; Takumi Information Technology Inc.). The selected mice were divided into 5 to 7 groups of 7 to 12 mice using the “completely randomization design by the single variable” program (Analytical program version 1.0.7), with body weight on the testing day. After grouping, p values for Bartlett's test and ANOVA across all groups were greater than 0.2, indicating no significant difference in this parameter among the groups.
The required amount of each compound was weighed and put into a glass homogenizer. The required amount of 0.5% MC (methyl cellulose) solution was added, and each compound was suspended to give a 10 mg/kg dosing suspension.
The required amount of donepezil was weighed and put into a glass homogenizer. The required amount of 0.5% MC solution was added, and donepezil was suspended to give a suspension at concentration of 1 mg/mL (10 mg/kg dosing suspension).
The required amount of scopolamine and MK801 were weighed, and saline was added to it to give 0.3 mg/mL and 0.015 mg/mL solution, respectively.
90 Min before the test, the mice were orally administered each compound, donepezil, and vehicle (0.5% methyl cellulose, 10 mL/kg). After 60 min, memory impairment was induced by administering scopolamine (0.6 mg/kg, s.c.) with (co-administration) or without (mono-administration) MK801 (0.03 mg/kg, s.c.). The control group received saline (2 mL/kg, s.c.) rather than scopolamine and MK801.
The Y-maze used herein is a three-arm maze with equal angles between all arms. The mazefloor and walls were constructed from black acrylic resin. The mice were initially placed within one arm, and the sequence and number of arm entries were recorded manually for each mouse over an 8-min period.
Data were processed and analyzed with Microsoft® Office Excel 2003. The alternation behavior was defined as entries into all three arms on consecutive occasions. The percent alternation behavior in each animal was calculated using the following formula, and rounded to one decimal place.
Alternation behavior(%)=[actual alternation/(total arm entries−2)]×100
Restoration ratio of alternation behavior (%) in each animal was calculated using the following formula, and rounded to one decimal place.
Restoration ratio of alternation behavior in each animal (%)=y Alternation behavior in each animal (%)=x Mean of alternation behavior in vehicle-treated group (group No. 1) (%)=A Mean of alternation behavior in scopolamine-treated group (group No. 2) (%)=B
Data were expressed as the mean of the percent alternation behavior, the number of total arm entries and the restoration ratio of alternation behavior.
Values of Y-maze tests are expressed as mean of alternation behavior (n=7−12).
Alternation behaviors in the scopolamine-treated groups were compared to those in the control groups using Wilcoxon rank sum test (Stat preclinical; Version 1.03295; Takumi Information Technology Inc.) with a two-sided significance level of 0.05.
Restoration of alternation behavior was analyzed using Stat Preclinica. Alternation behaviors in the Donepezil (10 mg/kg, p.o.)-treated group were compared to those in the co-administrated groups of test compounds with donepezil (10 mg/kg, p.o.) using non-parametric Dunnett multiple comparison test (Analytical program version 1.0.2) with a two-sided significance level of 0.05.

[2] = animal experiment using rats; cited from earlier work
[3] = phase II clinical trial with AD patients; cited from earlier work

| Compound | Alternation behavior (%) [1] | improving cognitive function [2] | lowering Aβ [2] | effect for improving cognitive function [3] |
| --- | --- | --- | --- | --- |
| COc1cc2c(cc1OC)C(=O)C(CC1CCN(Cc3ccccc3)CC1)C2 (stereo not shown) [Donepezil, donepezil, reference compound] | 51.5^# % and 49.9^# % |  |  |  |
| CC(C)n1c(=O)c(C(=O)NCCCN2CCCCC2)c(O)c2ccsc21 [PRX-03140] |  | efficacious for improving cognitive function | lowering Aβ | shows the effect for improving cognitive function |

Reference: patent US20140057895A1, “INDAZOLE- AND PYRROLOPYRIDINE-DERIVATIVE AND PHARMACEUTICAL USE THEREOF” (priority 2011, published 2014)
